Data reported in patent US6517742B1, “Sunscreen agents, photoprotective cosmetic compositions containing them and uses thereof” (L'Oreal, priority 1996, dated 2003).

Assay: UV absorption spectrum in ethanol (λmax, εmax)
Format: physicochemical
Design: UV εmax: unit not given beside the values
Conditions: for UV εmax: at λmax

Row | UV λmax (Ethanol) [nm] | UV εmax (Ethanol) | UV λmax (95% Ethanol) [nm] | UV εmax (95% Ethanol) | Compound
1 | 354 | 66,460 |  |  | CC12CCC(C(=Cc3ccc(Nc4nc(NCCC[Si](C)(O[Si](C)(C)C)O[Si](C)(C)C)nc(Nc5ccc(C=C6C(=O)C7(C)CCC6C7(C)C)cc5)n4)cc3)C1=O)C2(C)C [Example 2, 2,4-bis(4′-ylamnobenzylidenecamphor)-6-{[1,3,3,3-tetramethyl-1-[(trimethylsilyl)oxy]disiloxanyl]propyl-3-ylamino}-s-triazine]
2 | 324 | 22,000 |  |  | Cc1cc(Nc2nc(NCCC[Si](C)(O[Si](C)(C)C)O[Si](C)(C)C)nc(NCCC[Si](C)(O[Si](C)(C)C)O[Si](C)(C)C)n2)c(O)c(-n2nc3ccccc3n2)c1 [Example 4, 2-(2-benzotriazol-2-yl-4-methyl-6-ylaminophenol)-4,6-bis{[1,3,3,3-tetramethyl-1-[(trimethylsilyl)oxy]disiloxanyl]propyl-3-ylamino}-s-triazine]
3 |  |  | 310 | 75,510 | CCCCOC(=O)c1ccc(Nc2nc(NCCC[Si](C)(O[Si](C)(C)C)O[Si](C)(C)C)nc(Nc3ccc(C(=O)OCCCC)cc3)n2)cc1 [Example 3, 2,4-bis(butyl 4′-ylaminobenzoate)-6-{[1,3,3,3-tetramethyl-1-[(trimethylsilyl)oxy]disiloxanyl]propyl-3-ylamino}-s-triazine]
4 | 356.5 | 65,650 |  |  | CC(C)COC(=O)C(=Cc1ccc(Nc2nc(NCCC[Si](C)(O[Si](C)(C)C)O[Si](C)(C)C)nc(Nc3ccc(C=C(C(=O)OCC(C)C)C(=O)OCC(C)C)cc3)n2)cc1)C(=O)OCC(C)C [Example 5, 2,4-bis(diisobutyl 4′-ylaminobenzalmalonate)-6-{[1,1,1,3-tetramethyl-1-[(trimethylsilyl)oxy]disiloxanyl]propyl-3-ylamino}-s-triazine]

Row | Compound | UV λmax (Ethanol) [nm] | UV εmax (Ethanol) | UV λmax (95% Ethanol) [nm] | UV εmax (95% Ethanol)
5 | 2-(butyl 4′-ylaminobenzoate)-4,6-bis{[1,3,3,3-tetramethyl-1-[(trimethylsilyl)oxy]disiloxanyl]propyl-3-ylamino}-s-triazine [Example 1] | 300 | 40,800 |  | 
